According to ChEMBL document CHEMBL3301361, “Experimental in vitro DMPK and physicochemical data on a set of publicly disclosed compounds”:
Values after ≈ are worked out from the molar mass of the structure shown. Residues, ends and D or L forms follow the SMILES beside them.

How the values were obtained:
in vitro [1] = settings: Beagle, dog, plasma
in vitro [2] = settings: SD, HW or BN, rat, plasma
in vitro [3] = settings: human
in vitro [4] = settings: human, plasma
physchem [5] = settings: octan-1-ol/water
in vitro [6] = settings: human, hepatocytes
in vitro [7] = settings: hepatocytes
physchem [8] = settings: pH 7.4 buffer

Row | Compound | fraction unbound at 5 h (in vitro [1]) | fraction unbound at 5 h (in vitro [2]) | microsomal CLint (in vitro [3]; liver microsomes) | fraction unbound at 5 h (in vitro [4]; PPB) | logD (physchem [5]; pH 7.4, LogD7.4) | hepatocyte CLint (in vitro [6]) | microsomal CLint (in vitro [3]; microsomes) | hepatocyte CLint (in vitro [7]) | solubility thermodynamic (physchem [8]) | fraction unbound at 5 h (in vitro [4]) | logD (physchem [5]; pH 7.4)
1 | CCCc1nc2c(C)cc(-c3nc4ccccc4n3C)cc2n1Cc1ccc(-c2ccccc2C(=O)O)cc1 | 0.0175 | 0.0038 | < 3 µL/min/mg | 0.0077 | 2.21 | 3.98 µL/min/1e6 cells | – | – | – | – | –
2 | CC(C)(N)C(=O)N[C@H](COCc1ccc(F)cc1F)C(=O)N1CCC2=NN(CC(F)(F)F)C(=O)[C@]2(Cc2ccccn2)C1 | 0.454 | 0.511 | – | – | – | 15.5 µL/min/1e6 cells | – | – | – | – | –
3 | O=C(O)COc1ccc(Cl)cc1CN1CCN(S(=O)(=O)Cc2ccccc2)CC1 | 0.0343 | 0.114 | – | 0.0067 | 0.33 | < 3 µL/min/1e6 cells | – | – | – | – | –
4 | N#Cc1cccc(-c2cc(Cl)ccc2OCC(=O)O)c1 | 0.0234 | 0.0343 | – | 0.0075 | – | – | < 3 µL/min/mg | – | – | – | –
5 | Cc1ccc(S(=O)(=O)Nc2c(C(=O)N[C@@H](C)C(C)(C)C)c(C)nn2C2CCOCC2)cc1 | 0.529 | 0.166 | 7 µL/min/mg | 0.208 | – | – | – | < 3 µL/min/1e6 cells | – | – | –
6 | COc1cc2c(cc1-c1c(C)noc1C)ncc1[nH]c(=O)n([C@H](C)c3ccccn3)c12 | 0.105 | 0.0374 | – | 0.0234 | 3.15 | – | 7.59 µL/min/mg | – | – | – | –
7 | Cc1c(OC2CCN(CC3CCN([C@@](C)(Cc4ccc(F)cc4)C(=O)O)CC3)CC2)ccc(Cl)c1Cl | 0.0568 | 0.0752 | < 3 µL/min/mg | – | – | – | – | < 3 µL/min/1e6 cells | – | – | –
8 | O=C(O)[C@H](Cc1ccc(F)cc1)N1CCC(CN2CCC(Oc3ccc(Cl)c(Cl)c3)CC2)CC1 | 0.224 | 0.22 | – | 0.114 | 2.98 | – | – | – | 72.4 µM (≈ 36.9 µg/mL) | – | –
9 | Cc1cn([C@H]2CCCN([C@H](C)c3ccc(C(=O)O)c(Oc4cccc(Cl)c4)c3)C2)c(=O)[nH]c1=O | 0.101 | 0.0293 | – | 0.0156 | -0.3 | – | – | 3.39 µL/min/1e6 cells | – | – | –
10 | Cc1cn([C@H]2CCCN([C@H](CC(C)C)c3ccc(C(=O)O)c(Oc4cccc(Cl)c4)c3)C2)c(=O)[nH]c1=O | 0.0366 | 0.0175 | – | 0.0274 | 0.91 | – | – | 9.12 µL/min/1e6 cells | – | – | –
11 | Cc1cn([C@H]2CCCN([C@H](CC(C)(C)C)c3ccc(C(=O)O)c(Oc4cccc(Br)c4)c3)C2)c(=O)[nH]c1=O | 0.0268 | 0.0149 | – | 0.0287 | 1.09 | – | – | 49 µL/min/1e6 cells | – | – | –
12 | CC(C)(C)NC(=O)NCCN1CC(NC(=O)c2cc(Cl)cc(Cl)c2)C1 | 0.0784 | 0.101 | – | 0.0928 | – | 3.31 µL/min/1e6 cells | – | – | – | – | –
13 | CC(C)(C)NC(=O)NCCN1CCN(CC(=O)NC23CC4CC(CC(C4)C2)C3)CC1 | 0.24 | – | – | – | – | 33.9 µL/min/1e6 cells | – | – | – | – | –
14 | CC[C@H](CO)Nc1nc(SCc2ccccc2)nc2[nH]c(=O)sc12 | 0.0053 | – | – | 0.0016 | – | 10 µL/min/1e6 cells | – | – | – | – | –
15 | C[C@H](CO)Nc1[nH]c(SCc2ccccc2F)nc2nc(=O)sc1-2 | 0.0171 | – | 3 µL/min/mg | – | 3 | 30.1 µL/min/1e6 cells | – | 28 µL/min/1e6 cells | 8.1 µM (≈ 2.97 µg/mL) | – | –
16 | C[C@H](CO)Nc1nc(SCc2ccco2)nc2[nH]c(=O)sc12 | 0.0274 | – | – | 0.016 | 2.21 | – | 8.28 µL/min/mg | 61 µL/min/1e6 cells | – | – | –
17 | CCN(CC)CCN1C(=O)C(O)(c2ccccc2Cl)c2c1cc(C(N)=O)cc2C(F)(F)F (stereo not given) | 0.212 | – | – | – | – | 15.1 µL/min/1e6 cells | – | – | – | – | –

Row | Compound | fraction unbound at 5 h (in vitro [1]) | fraction unbound at 5 h (in vitro [2]) | microsomal CLint (in vitro [3]; liver microsomes) | fraction unbound at 5 h (in vitro [4]; PPB) | logD (physchem [5]; pH 7.4, LogD7.4) | hepatocyte CLint (in vitro [6]) | microsomal CLint (in vitro [3]; microsomes) | hepatocyte CLint (in vitro [7]) | solubility thermodynamic (physchem [8]) | fraction unbound at 5 h (in vitro [4]) | logD (physchem [5]; pH 7.4)
18 | CCOc1cc2ncc(C(N)=O)c(Nc3ccc(C)cc3F)c2cc1N1CCN(C)CC1 | 0.183 | 0.151 | – | – | – | – | 26 µL/min/mg | 12 µL/min/1e6 cells | – | – | –
19 | COc1ccc(CCN2C(=O)N(NS(C)(=O)=O)C[C@@H]2c2ccc(OC)cc2)cc1 | 0.0854 | 0.0191 | – | 0.0477 | – | 19.1 µL/min/1e6 cells | – | – | – | – | –
20 | COc1ccc(CCN2C(=O)N(NS(C)(=O)=O)C[C@H]2c2ccc(OC)cc2)cc1 | 0.089 | 0.0568 | – | 0.0633 | – | 21.9 µL/min/1e6 cells | – | – | – | – | –
21 | CCCCNC(=O)c1ccc(Oc2ccc(CC(=O)O)cc2OC)c(NS(=O)(=O)c2ccc(Cl)cc2Cl)c1 | 0.0171 | 0.0019 | – | 0.002 | – | – | < 3 µL/min/mg | – | – | – | –
22 | C[C@H](NC(=O)[C@@H](Cc1c[nH]c2ccccc12)NC(=O)[C@@H](N)Cc1c[nH]cn1)C(=O)N[C@@H](Cc1c[nH]c2ccccc12)C(=O)N[C@H](Cc1ccccc1)C(=O)N[C@@H](CCCCN)C(N)=O (HELM PEPTIDE1{H.[dW].A.W.[dF].K.[am]}$$$$V2.0) | 0.183 | 0.262 | 61.7 µL/min/mg | – | – | – | – | – | – | – | –
23 | COc1cc(-n2cnc3cc(-c4ccc(Cl)cc4)sc3c2=O)ccc1OC[C@H](OP(=O)(O)O)C1CC1 [BMS-830216] | 0.0084 | – | < 3 µL/min/mg | 0.0061 | -0.04 | 12.3 µL/min/1e6 cells | – | – | – | – | –
24 | CC(C)(N)C(=O)N[C@H](COCc1ccccc1)C(=O)N1CCC2(CC1)CN(S(C)(=O)=O)c1ccccc12 [IBUTAMOREN] | 0.212 | 0.253 | – | 0.232 | 1.4 | 14.4 µL/min/1e6 cells | – | – | – | – | –
25 | C#CC[C@@H](C(=O)N[C@H](/C=C/C(=O)OCC)C[C@@H]1CCNC1=O)n1cccc(NC(=O)c2cc(C)on2)c1=O [IMOCITRELVIR] | 0.535 | – | – | 0.443 | 1.75 | – | 20.9 µL/min/mg | > 150 µL/min/1e6 cells | – | – | –
26 | CC(C)Oc1ccc2c(=O)c(-c3ccccc3)coc2c1 [IPRIFLAVONE] | 0.0051 | 0.0056 | – | 0.0053 | 4.07 | – | – | 110 µL/min/1e6 cells | 2.8 µM (≈ 0.785 µg/mL) | – | –
27 | CCCCC1=NC2(CCCC2)C(=O)N1Cc1ccc(-c2ccccc2-c2nnn[nH]2)cc1 [IRBESARTAN] | 0.0146 | – | – | – | – | 10.5 µL/min/1e6 cells | 17.8 µL/min/mg | 9.01 µL/min/1e6 cells | 891 µM (≈ 382 µg/mL) | – | –
28 | COCCOC(=O)C1=C(C)NC(C)=C(C(=O)OC(C)C)C1c1cccc([N+](=O)[O-])c1 (stereo not given) [NIMODIPINE] | 0.0116 | 0.0175 | – | 0.0183 | 3.8 | – | – | – | 3.1 µM (≈ 1.3 µg/mL) | – | –
29 | CCOC(=O)C1=C(C)NC(C)=C(C(=O)OC)C1c1cccc([N+](=O)[O-])c1 (stereo not given) [NITRENDIPINE] | 0.0108 | 0.0077 | 85 µL/min/mg | 0.009 | – | – | – | 75 µL/min/1e6 cells | – | – | –
30 | O=C(Nc1ccccc1F)N[C@H]1N=C(c2ccccc2)c2ccccc2NC1=O [RSV-604] | 0.0307 | 0.0274 | – | – | – | – | – | – | 2.6 µM (≈ 1.01 µg/mL) | 0.0366 | 4
31 | CC1=C(C)C(=O)C(C(CCCCCC(=O)O)c2ccccc2)=C(C)C1=O (stereo not given) [SERATRODAST] | 0.02 | – | – | – | 2.48 | – | 3 µL/min/mg | 85 µL/min/1e6 cells | – | – | –
32 | Cc1ccc(C(=O)c2ccc(CC(=O)O)n2C)cc1 [TOLMETIN] | 0.0477 | 0.0287 | – | 0.0028 | -1.02 | – | 4 µL/min/mg | 7.33 µL/min/1e6 cells | – | – | –
33 | CC(C)(C)NC(=O)c1ccc(Oc2cc(F)c(CC(=O)O)cc2Cl)c(NS(=O)(=O)c2ccc(C3CC3)cc2Cl)c1 [VIDUPIPRANT] | 0.0039 | – | < 3 µL/min/mg | 0.0015 | – | 6 µL/min/1e6 cells | – | 6 µL/min/1e6 cells | 851 µM (≈ 519 µg/mL) | – | –
